Measured values reported in US20220372040A1, “METTL3 MODULATORS” (Accent Therapeutics, Inc., priority 2020, published 2022).
Like-named read-outs stand apart in the source and are kept apart here.

What was measured:
Format in all cases: biochemical
PRMT5-MEP50 = PRMT5-MEP50 (Homo sapiens, UniProt O14744); assay: PRMT5 assay (3H-SAM flashplate scintillation); conditions: PRMT5-MEP50 2.5 nM, histone H4 peptide 100 nM, 3H-SAM 250 nM, 60 min
Method in brief: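 PRMT5-MEP50 (2.5 nM final) preincubated 5 min with compound, then reacted 60 min at ambient temperature with 100 nM biotinylated N-acetyl histone H4 peptide and 250 nM 3H-SAM in 20 mM Tris-HCl pH 8.0, 1 mM DTT, 0.01% Tween. Quenched with 15 μM cold SAM; methylated peptide captured on streptavidin flashplates, scintillation counted.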

METTL16 = molecular target: T1, METTL16 (Homo sapiens, UniProt Q86W50); assay: METTL16 assay (3H-SAM flashplate scintillation); conditions: METTL16 100 nM, RNA 50 nM, 3H-SAM 200 nM, SAM 800 nM, 20 min
T1 sequence (Q86W50 1-562): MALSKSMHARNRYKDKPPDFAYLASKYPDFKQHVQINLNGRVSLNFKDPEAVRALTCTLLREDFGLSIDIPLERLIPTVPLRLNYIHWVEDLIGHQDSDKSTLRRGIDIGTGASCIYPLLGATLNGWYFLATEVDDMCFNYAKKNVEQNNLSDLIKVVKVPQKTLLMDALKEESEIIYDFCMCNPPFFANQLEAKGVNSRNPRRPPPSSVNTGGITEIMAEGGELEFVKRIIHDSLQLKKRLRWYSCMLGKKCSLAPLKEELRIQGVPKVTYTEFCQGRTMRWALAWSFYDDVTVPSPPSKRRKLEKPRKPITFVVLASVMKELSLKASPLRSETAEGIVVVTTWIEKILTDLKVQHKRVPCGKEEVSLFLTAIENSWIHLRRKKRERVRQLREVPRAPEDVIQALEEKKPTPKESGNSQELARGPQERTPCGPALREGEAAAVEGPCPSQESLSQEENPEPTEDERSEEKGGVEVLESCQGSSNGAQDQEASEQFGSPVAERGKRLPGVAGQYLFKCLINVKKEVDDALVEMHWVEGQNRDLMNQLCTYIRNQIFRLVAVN
Method in brief: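 Radiometric methyltransferase reaction at ambient temperature in 20 mM HEPES pH 7.5, 50 mM KCl, 1 mM DTT, with 100 nM enzyme preincubated 5 min with compound. It was started with 50 nM 3′-biotinylated RNA, 200 nM 3H-SAM plus 800 nM cold SAM, run 20 min, then quenched with excess cold SAM. Product was captured on streptavidin flashplates and scintillation-counted.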

METTL1/WDR4 = METTL1/WDR4 (Homo sapiens, UniProt Q9UBP6); assay: METTL1 assay (3H-SAM flashplate scintillation)
METTL1/WDR4, sequence (Q9UBP6 whole entry, species assumed): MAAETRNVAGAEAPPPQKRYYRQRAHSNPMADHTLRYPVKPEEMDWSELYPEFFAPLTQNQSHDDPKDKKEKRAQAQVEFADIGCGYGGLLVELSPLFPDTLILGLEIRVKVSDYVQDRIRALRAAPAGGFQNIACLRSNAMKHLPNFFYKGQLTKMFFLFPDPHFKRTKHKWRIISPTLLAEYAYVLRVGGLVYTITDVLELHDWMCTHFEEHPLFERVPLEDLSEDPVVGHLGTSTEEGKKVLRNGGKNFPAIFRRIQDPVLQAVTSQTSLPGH
METTL1/WDR4, sequence (P57081 whole entry partner, species assumed): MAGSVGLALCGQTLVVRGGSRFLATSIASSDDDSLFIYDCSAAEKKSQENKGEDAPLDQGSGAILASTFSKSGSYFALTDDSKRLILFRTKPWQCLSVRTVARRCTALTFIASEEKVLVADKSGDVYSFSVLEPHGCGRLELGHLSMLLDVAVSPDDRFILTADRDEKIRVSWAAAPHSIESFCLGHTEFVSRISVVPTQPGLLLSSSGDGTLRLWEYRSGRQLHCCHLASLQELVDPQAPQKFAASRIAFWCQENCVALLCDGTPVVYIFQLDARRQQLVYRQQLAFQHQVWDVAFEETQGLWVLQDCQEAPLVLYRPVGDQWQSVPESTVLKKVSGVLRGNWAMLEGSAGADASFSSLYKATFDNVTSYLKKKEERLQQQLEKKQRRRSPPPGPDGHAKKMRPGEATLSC
Method in brief: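 Radiometric methyltransfer by METTL1/WDR4 (6.25 nM f.c., 5 min preincubation) at ambient temperature in HEPES pH 7.5, KCl, MgCl2, DTT; started with 25 nM 3′-biotinylated RNA and 60 nM 3H-SAM, run 20 min, quenched with 15 μM cold SAM. Product captured on streptavidin flashplates (2 h, 25° C), counted by scintillation.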

[1] = METTL1/WDR4 6.25 nM, RNA 25 nM, 3H-SAM 60 nM, 20 min, read-out: METTL1 IC50

PRMT5-MEP50, sequence (O14744 whole entry): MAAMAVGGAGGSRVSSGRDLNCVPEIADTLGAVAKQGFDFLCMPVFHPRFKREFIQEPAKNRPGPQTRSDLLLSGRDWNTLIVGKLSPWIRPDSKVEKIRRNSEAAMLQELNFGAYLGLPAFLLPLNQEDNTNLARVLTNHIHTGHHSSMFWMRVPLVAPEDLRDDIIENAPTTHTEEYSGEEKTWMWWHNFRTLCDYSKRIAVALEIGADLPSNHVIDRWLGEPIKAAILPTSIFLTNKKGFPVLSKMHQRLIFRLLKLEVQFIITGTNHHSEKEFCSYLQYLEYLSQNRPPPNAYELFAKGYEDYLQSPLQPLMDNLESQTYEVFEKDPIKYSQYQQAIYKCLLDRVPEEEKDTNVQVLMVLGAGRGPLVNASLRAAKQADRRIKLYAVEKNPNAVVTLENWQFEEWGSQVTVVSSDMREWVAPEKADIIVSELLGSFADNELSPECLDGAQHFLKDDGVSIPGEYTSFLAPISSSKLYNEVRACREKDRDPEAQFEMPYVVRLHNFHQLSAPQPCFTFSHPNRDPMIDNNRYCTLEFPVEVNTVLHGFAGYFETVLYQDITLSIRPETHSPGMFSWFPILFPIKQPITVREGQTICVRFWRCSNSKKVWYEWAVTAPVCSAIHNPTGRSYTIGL
PRMT5-MEP50, sequence (Q9BQA1 whole entry partner): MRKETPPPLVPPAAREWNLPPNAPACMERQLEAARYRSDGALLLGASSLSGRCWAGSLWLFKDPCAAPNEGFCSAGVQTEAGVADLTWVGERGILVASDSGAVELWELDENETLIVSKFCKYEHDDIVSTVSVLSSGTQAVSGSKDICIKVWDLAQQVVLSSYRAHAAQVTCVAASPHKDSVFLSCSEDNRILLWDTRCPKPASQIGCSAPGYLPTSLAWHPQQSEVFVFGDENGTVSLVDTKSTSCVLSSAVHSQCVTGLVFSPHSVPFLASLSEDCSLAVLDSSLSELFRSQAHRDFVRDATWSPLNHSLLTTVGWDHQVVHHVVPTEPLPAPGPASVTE

SMILES	IC50 (PRMT5-MEP50) [nM]	IC50 (METTL16) [nM]	IC50 (METTL1/WDR4; [1]) [nM]	IC50 (METTL1/WDR4) [nM]
C[C@@H]1CCN1c1ccc2ccc(OCc3cncc(-n4cc(C5CCCC5)c5c(N)ncnc54)c3)cc2n1 [Compound I-124]	> 1000	> 1000	> 1000	
CCNc1ccc2ccc(OCc3cccc(-n4cc(Cl)c5c(N)ncnc54)c3)cc2n1 [Compound I-61]	> 1000	> 1000	> 1000	
CCc1cc(NCCCN(C)C)c2ccc(CCc3cncc(-n4ccc5c(N)ncnc54)c3)cc2n1 [Compound I-127]	> 1000	> 1000	> 1000	
CNc1ccc2ccc(OCc3cncc(-n4cc(-c5ncco5)c5c(N)ncnc54)c3)cc2n1 [Compound I-235]	> 1000	> 1000	> 1000	
CNc1ccc2ccc(OCc3cncc(-n4c(C)cc5c(N)ncnc54)c3)cc2n1 [Compound I-36]	> 1000	> 1000	> 1000	
Nc1nc2cc(OCc3cncc(-n4ccc5c(N)ncnc54)c3)ccc2cc1Br [Compound I-111]	> 1000	> 1000	> 1000	
Cn1ccc(-c2cn(-c3cncc(CCc4ccc5ccc(N)nc5c4)c3)c3ncnc(N)c23)n1 [Compound I-114]	> 1000	> 1000	> 1000	
CCc1cc(N(C)CCOC)c2ccc(CCc3cncc(-n4cc(-c5ccn(C)n5)c5c(N)ncnc54)c3)cc2n1 [Compound I-117]	> 1000	> 1000		> 1000
CNc1ccc2ccc(OCc3cc(CO)cc(-n4cc(Cl)c5c(N)ncnc54)c3)cc2n1 [Compound I-34]	> 1000	> 1000	> 1000	
Nc1ncnc2c1c(C1CCCO1)cn2-c1cncc(CCc2ccc3ccc(N4CCC4)nc3c2)c1 (centres unmarked) [Compound I-126]	> 1000	> 1000	> 1000	
CCc1cc(NCCOC)c2ccc(CCc3cncc(-n4cc(-c5ccn(C)n5)c5c(N)ncnc54)c3)cc2n1 [Compound I-115]	> 1000	> 1000		> 1000
CNc1ccc2ccc(CCc3cncc(-n4ccc5c(N)ncnc54)c3)cc2n1 [Compound I-30]	> 1000	> 1000	> 1000	
Cn1ccc(-c2cn(-c3cncc(CCc4ccc5cc(Br)c(N)nc5c4)c3)c3ncnc(N)c23)n1 [Compound I-123]	> 1000	> 1000	> 1000	
CNc1ccc2ccc(OCc3cncc(-n4cc(CC5CC5)c5c(N)ncnc54)c3)cc2n1 [Compound I-29]	> 1000	> 1000	> 1000	
CNc1ccc2ccc(OCc3cncc(-n4cc(-c5ccnn5C)c5c(N)ncnc54)c3)cc2n1 [Compound I-35]	> 1000	> 1000	> 1000	
CNc1ccc2ccc(OCc3cncc(-n4cc(-c5ccc(C)o5)c5c(N)ncnc54)c3)cc2n1 [Compound I-234]	> 1000	> 1000	> 1000	
CCNc1ccc2ccc(OCc3cncc(-n4cc(-c5ccn(C)n5)c5c(N)ncnc54)c3)cc2n1 [Compound I-128]	> 1000	> 1000	> 1000	
CNc1ccc2ccc(OCc3cncc(-n4cc([C@H]5CCCO5)c5c(N)ncnc54)c3)cc2n1 [Compound I-112]	> 1000	> 1000		> 1000
CCc1cc(N2CCC(F)(F)CC2)c2ccc(OCc3cncc(-n4ccc5c(N)ncnc54)c3)cc2n1 [Compound I-118]	> 1000	> 1000	> 1000	
CNc1ccc2ccc(OCc3cncc(-n4cc(C(C)C5CC5)c5c(N)ncnc54)c3)cc2n1 (centres unmarked) [Compound I-120]	> 1000	> 1000	> 1000	
CNc1ccc2cc(CCc3cccc(-n4cc(Cl)c5c(N)ncnc54)c3)ccc2n1 [Compound I-70]	> 1000	> 1000	> 1000	
CNc1ccc2ccc(OCc3cncc(-n4cc([C@@H]5CCCO5)c5c(N)ncnc54)c3)cc2n1 [Compound I-113]	> 1000	> 1000		> 1000
CNc1ccc2ccc(OCc3cccc(-n4cc(Cl)c5c(N)ncnc54)c3)cc2n1 [Compound I-87]	> 1000	> 1000	> 1000	
CNc1ccc2ccc(OCc3cncc(-n4cc(Cl)c5c(N)ncnc54)c3)cc2n1 [Compound I-74, 7-((5-(4-amino-5-chloro-7H-pyrrolo[2,3-d]pyrimidin-7-yl)pyridin-3-yl)methoxy)-N-methylquinolin-2-amine]	> 1000	> 1000	> 1000	
CCc1cc(N2CCNCC2)c2ccc(OCc3cncc(-n4cc(-c5ccn(C)n5)c5c(N)ncnc54)c3)cc2n1 [Compound I-121]	> 1000	> 1000	> 1000	
CNc1ccc2ccc(OCc3cncc(-n4cc(C5CCCC5)c5c(N)ncnc54)c3)cc2n1 [Compound I-58]	> 1000	> 1000		
CNc1ccc2ccc(OCc3cc(Br)cc(-n4cc(Cl)c5c(N)ncnc54)c3)cc2n1 [Compound I-75]	> 1000	> 1000	> 1000	
CCc1cc(NC)c2ccc(CCc3cncc(-n4cc(-c5ccn(C)n5)c5c(N)ncnc54)c3)cc2n1 [Compound I-122]	> 1000	> 1000	> 1000	
CNc1ccc2ccc(CCc3cncc(-n4cc(F)c5c(N)ncnc54)c3)cc2n1 [Compound I-116]	> 1000	> 1000	> 1000	
